The term IC50 denotes the concentration needed to halve the response being measured. The viability, T/C is the result in the treated group divided by that in the control group, in per cent.

The values below come from PubChem BioAssay AID1845197 (Molecular Pharmacology Branch, DTP, NCI, 2023).

The test relates to 349418-098-R tumor spheroid viability. In words: Anticancer human tumor 349418-098-R patient-derived lung adenocarcinoma cell line growth inhibition. The note with it: spheroids with HUVEC and MSC; for viability, T/C: stronger effect = lower value. The essentials: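 Complex spheroids of malignant cells with endothelial cells and mesenchymal stem cells; agents alone or combined, from near clinical Cmax (or 10 microM if unknown) down in half-log steps, 0.25% DMSO final.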

Setting [1] is: curve of first compound, second compound 0.003 µM.
Where [2] appears, read: curve of first compound, second compound 0.00949 µM.
[3] abbreviates: curve of first compound, second compound 0.03 µM.
[4] abbreviates: curve of first compound, second compound 0.0949 µM.
The mark [5] stands for this setting: curve of first compound, second compound 0.3 µM.

Each structure is given as a SMILES string. “And” between values parts separate entries of the source, which are not always exact repeats. Equal values may be shown once. A value given as a limit tells only on which side of the number the result lay.
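Note: spheroids exposed to compound for 7 days before measurement.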
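Throughout, for viability, T/C: percent of vehicle control viability with 100% = DMSO-treated spheroids.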

As to `Cc1cc(C)c(CNC(=O)c2cc(-c3ccc(CN4CCOCC4)cc3)cc3c2cnn3C2CCCC2)c(=O)[nH]1` + CC[C@@]1(O)C(=O)OCc2c1cc1n(c2=O)Cc2cc3c(CN(C)C)c(O)ccc3nc2-1, the IC50 by setting is: under setting [1], 6590 nM; under setting [2], 5790 nM; under setting [3], 1030 nM; under setting [4], below 31.6 nM; under setting [5], below 31.6 nM. Also, the viability, T/C reads like this: (second compound 0.003 µM, first compound 0.0316 µM) 98.5%; (second compound 0.003 µM, first compound 0.1 µM) 97.9%; (second compound 0.003 µM, first compound 0.316 µM) 94.8%; (second compound 0.003 µM, first compound 1 µM) 92.6%; (second compound 0.003 µM, first compound 3.16 µM) 89.3%; (second compound 0.003 µM, first compound 10 µM) 27.5%. Moreover, the viability, T/C is 93.4% (second compound 0.00949 µM, first compound 0.0316 µM); 95.7% (second compound 0.00949 µM, first compound 0.1 µM); 88.9% (second compound 0.00949 µM, first compound 0.316 µM); 84.4% (second compound 0.00949 µM, first compound 1 µM); 71.9% (second compound 0.00949 µM, first compound 3.16 µM); 31.4% (second compound 0.00949 µM, first compound 10 µM). The viability, T/C was 73.4% (second compound 0.03 µM, first compound 0.0316 µM); 75.2% (second compound 0.03 µM, first compound 0.1 µM); 62.4% (second compound 0.03 µM, first compound 0.316 µM); 52.7% (second compound 0.03 µM, first compound 1 µM); 26.4% (second compound 0.03 µM, first compound 3.16 µM); 8.63% (second compound 0.03 µM, first compound 10 µM). Moreover, the viability, T/C is, setting by setting: (second compound 0.0949 µM, first compound 0.0316 µM) 19.2%; (second compound 0.0949 µM, first compound 0.1 µM) 14.8%; (second compound 0.0949 µM, first compound 0.316 µM) 8.67%; (second compound 0.0949 µM, first compound 1 µM) 5.66%; (second compound 0.0949 µM, first compound 3.16 µM) 5.2%; (second compound 0.0949 µM, first compound 10 µM) 4.15%. For the same compound, the viability, T/C was 2.97% (second compound 0.3 µM, first compound 0.0316 µM); 3.59% (second compound 0.3 µM, first compound 0.1 µM); 3.1% (second compound 0.3 µM, first compound 0.316 µM); 3.16% (second compound 0.3 µM, first compound 1 µM); 3.27% (second compound 0.3 µM, first compound 3.16 µM); 3.11% (second compound 0.3 µM, first compound 10 µM).

`CNCc1ccc(-c2cc(-c3nc(-c4ccc(S(=O)(=O)C(C)C)cc4)cnc3N)on2)cc1` + CC[C@@]1(O)C(=O)OCc2c1cc1n(c2=O)Cc2cc3c(CN(C)C)c(O)ccc3nc2-1: the IC50 is, setting by setting: under setting [1], 202 nM; under setting [2], 160 nM; under setting [3], 147 nM; under setting [4], below 9.49 nM; under setting [5], below 9.49 nM. The viability, T/C reads like this: (second compound 0.003 µM, first compound 0.00949 µM) 106%; (second compound 0.003 µM, first compound 0.03 µM) 96.8%; (second compound 0.003 µM, first compound 0.0949 µM) 95%; (second compound 0.003 µM, first compound 0.3 µM) 26.4%; (second compound 0.003 µM, first compound 0.949 µM) 6.42%; (second compound 0.003 µM, first compound 3 µM) 1.25%. The viability, T/C runs as follows: (second compound 0.00949 µM, first compound 0.00949 µM) 103%; (second compound 0.00949 µM, first compound 0.03 µM) 96.3%; (second compound 0.00949 µM, first compound 0.0949 µM) 78.2%; (second compound 0.00949 µM, first compound 0.3 µM) 15.9%; (second compound 0.00949 µM, first compound 0.949 µM) 6.27%; (second compound 0.00949 µM, first compound 3 µM) 0.63%. Besides, the viability, T/C by setting is: (second compound 0.03 µM, first compound 0.00949 µM) 89.1%; (second compound 0.03 µM, first compound 0.03 µM) 83.9%; (second compound 0.03 µM, first compound 0.0949 µM) 74.5%; (second compound 0.03 µM, first compound 0.3 µM) 10.1%; (second compound 0.03 µM, first compound 0.949 µM) 3.96%; (second compound 0.03 µM, first compound 3 µM) 0.78%. Besides, the viability, T/C is 25.5% (second compound 0.0949 µM, first compound 0.00949 µM); 22% (second compound 0.0949 µM, first compound 0.03 µM); 12.8% (second compound 0.0949 µM, first compound 0.0949 µM); 4.56% (second compound 0.0949 µM, first compound 0.3 µM); 3.43% (second compound 0.0949 µM, first compound 0.949 µM); 0.31% (second compound 0.0949 µM, first compound 3 µM). The viability, T/C is 3.32% (second compound 0.3 µM, first compound 0.00949 µM); 4.32% (second compound 0.3 µM, first compound 0.03 µM); 3.68% (second compound 0.3 µM, first compound 0.0949 µM); 3.02% (second compound 0.3 µM, first compound 0.3 µM); 2.18% (second compound 0.3 µM, first compound 0.949 µM); 0.36% (second compound 0.3 µM, first compound 3 µM).

With `COc1ccc([C@@H](O)c2cc(-c3ncnc4cc(N5CCOCC5)ccc34)c(F)cc2Cl)nn1`, the viability, T/C reads like this: (compound 0.0316 µM) 106% and 101% and 93.8%; (compound 0.1 µM) 97.6% and 102% and 111%; (compound 0.316 µM) 105% and 103% and 114%; (compound 1 µM) 112% and 102% and 111%; (compound 3.16 µM) 88% and 62.7% and 101%; (compound 10 µM) 30.2% and 29% and 33.6%. Also, for the setting “curve of compound”, the IC50 was 6740 nM and 4890 nM and 7570 nM.

With `Cc1cc(C)c(CNC(=O)c2cc(-c3ccc(CN4CCOCC4)cc3)cc3c2cnn3C2CCCC2)c(=O)[nH]1`, the viability, T/C is 99.9% and 101% and 92.4% (compound 0.0316 µM); 118% and 95.5% and 100% (compound 0.1 µM); 111% and 98.5% and 101% (compound 0.316 µM); 109% and 97% and 96.8% (compound 1 µM); 126% and 87.5% and 87.7% (compound 3.16 µM); 75.6% and 33.3% and 40.8% (compound 10 µM). The IC50 (curve of compound) was > 10000 nM and 7020 nM and 7990 nM.

As to `CC1COCCN1c1cc(-c2ccnn2C)c2ccnc(-c3ccn[nH]3)c2n1` (stereo unspecified), the viability, T/C (compound 0.0316 µM) is 90.1% and 88.7% and 108%; the viability, T/C (compound 0.1 µM) is 48.2% and 41.8% and 114%; the viability, T/C (compound 0.316 µM) is 14.5% and 13% and 23.9%; the viability, T/C (compound 1 µM) was 11.7% and 10.5% and 18.3%; the viability, T/C (compound 3.16 µM) is 12.6% and 11.9% and 16.4%; the viability, T/C (compound 10 µM) was 11.6% (2×) and 11.7%. The IC50 (curve of compound) was 95.2 nM and 81.8 nM and 224 nM.
